We go through one molecule from article PMC2916031 (Journal of molecular biology, 2010).

Assay [1] concerns the target full-length TbMEAT1 (Trypanosoma brucei, UniProt C7AJA4). Description: U-addition to […]'-labelled RNA, denaturing gel. The class given is biochemical. The following applies: 100 µM UTP, 300 nM enzyme, 1 µM RNA, Mg acetate, pH 8.0, 27 °C.
Assay [2] deals with C-terminally truncated MEAT1 (Trypanosoma brucei, UniProt C7AJA4). Description: U-addition to […]'-labelled RNA, denaturing gel. The class given is biochemical. The following applies: 100 µM UTP, 300 nM enzyme, 1 µM RNA, Mg acetate, pH 8.0, 27 °C.
Sequence of C-terminally truncated MEAT1 (C7AJA4 1-381): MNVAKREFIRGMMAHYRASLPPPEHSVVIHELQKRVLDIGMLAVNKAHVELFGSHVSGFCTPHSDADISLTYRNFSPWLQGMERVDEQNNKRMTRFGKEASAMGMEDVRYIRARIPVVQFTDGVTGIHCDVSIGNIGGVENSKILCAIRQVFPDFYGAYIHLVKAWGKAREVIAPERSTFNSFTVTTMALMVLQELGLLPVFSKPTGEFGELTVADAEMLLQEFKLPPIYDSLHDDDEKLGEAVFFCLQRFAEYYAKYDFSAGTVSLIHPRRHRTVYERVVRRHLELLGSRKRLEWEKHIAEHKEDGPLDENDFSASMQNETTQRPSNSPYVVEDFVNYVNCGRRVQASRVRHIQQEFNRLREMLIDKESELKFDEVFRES

Sequence of full-length TbMEAT1 (C7AJA4 whole entry, the tested form may be a part): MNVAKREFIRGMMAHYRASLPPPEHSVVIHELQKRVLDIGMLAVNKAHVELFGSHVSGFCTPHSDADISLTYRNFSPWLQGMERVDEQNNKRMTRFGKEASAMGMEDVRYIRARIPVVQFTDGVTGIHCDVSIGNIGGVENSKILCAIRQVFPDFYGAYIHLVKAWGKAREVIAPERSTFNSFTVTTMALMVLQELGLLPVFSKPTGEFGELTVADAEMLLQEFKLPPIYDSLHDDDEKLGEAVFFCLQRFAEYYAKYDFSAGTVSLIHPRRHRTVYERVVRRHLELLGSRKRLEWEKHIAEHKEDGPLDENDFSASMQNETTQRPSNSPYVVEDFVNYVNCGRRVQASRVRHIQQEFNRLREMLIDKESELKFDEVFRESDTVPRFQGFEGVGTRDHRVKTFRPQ

Take `O=c1ccn([C@@H]2O[C@H](COP(=O)(O)OP(=O)(O)OP(=O)(O)O)[C@@H](O)[C@H]2O)c(=O)[nH]1` [UTP]: the results for the “U-addition to 5'-labelled RNA, denaturing gel” value in assay [1] and in assay [2] were “U-addition patterns for full-length TbMEAT1” and “neither limited proteolysis nor genetically-engineered C-terminal deletion had any discernable effects on enzymatic activity”, respectively.
